{"source": "the NIST ThermoML archive (doi:10.1021/je201211f)", "key": {"[1]": {"settings": "298.15 K, 101.33 kPa, Liquid; for viscosity: Capillary tube (Ostwald / Ubbelohde) method; for mass density: Vibrating tube method"}, "[2]": {"assay": "refractive index (Na D-line) (dimensionless)", "settings": "298.15 K; 101.33 kPa; Liquid; Standard Abbe refractometry"}, "[3]": {"assay": "xn = mol fraction of the nth substance listed", "settings": "101 kPa, Liquid; for mass density: Vibrating tube method; for viscosity: Capillary tube (Ostwald / Ubbelohde) method"}, "[4]": {"assay": "refractive index (Na D-line) (dimensionless); xn = mol fraction of the nth substance listed", "settings": "298.15 K, 101 kPa, Liquid"}}, "note": "Numbers after ± are expanded uncertainties."}
{"molecule": "CC(=O)O", "note": "[acetic acid]", "values": [{"measurement": "viscosity", "setting": "[1]", "result": "1.127 ± 0.009", "unit": "mPa·s"}, {"measurement": "mass density", "setting": "[1]", "result": "1043.58 ± 0.08", "unit": "kg/m3"}, {"measurement": "refractive index", "setting": "[2]", "result": "1.3698 ± 0.0008"}]}
{"molecule": "Cc1ccccc1C", "note": "[1,2-dimethylbenzene]", "values": [{"measurement": "viscosity", "setting": "[1]", "result": "0.757 ± 0.009", "unit": "mPa·s"}, {"measurement": "mass density", "setting": "[1]", "result": "875.57 ± 0.24", "unit": "kg/m3"}, {"measurement": "refractive index", "setting": "[2]", "result": "1.5024 ± 0.0008"}]}
{"molecule": "ClC=C(Cl)Cl", "note": "[trichloroethene]", "values": [{"measurement": "viscosity", "setting": "[1]", "result": "0.582 ± 0.007", "unit": "mPa·s"}, {"measurement": "mass density", "setting": "[1]", "result": "1455.53 ± 0.33", "unit": "kg/m3"}, {"measurement": "refractive index", "setting": "[2]", "result": "1.475 ± 0.0008"}]}
{"molecule": "Cc1ccc(C)cc1", "note": "[1,4-dimethylbenzene]", "values": [{"measurement": "viscosity", "setting": "[1]", "result": "0.609 ± 0.008", "unit": "mPa·s"}, {"measurement": "mass density", "setting": "[1]", "result": "856.68 ± 0.24", "unit": "kg/m3"}, {"measurement": "refractive index", "setting": "[2]", "result": "1.4929 ± 0.0008"}]}
{"molecule": "Cc1ccccc1C", "note": "[1,2-dimethylbenzene] + CC(=O)O", "values": [{"measurement": "mass density", "setting": "[3]; 293.15 K, x2 = 0.0479", "result": "882.96 ± 0.33", "unit": "kg/m3"}, {"measurement": "mass density", "setting": "[3]; 293.15 K, x2 = 0.1264", "result": "888.76 ± 0.33", "unit": "kg/m3"}, {"measurement": "mass density", "setting": "[3]; 293.15 K, x2 = 0.2399", "result": "898.21 ± 0.31", "unit": "kg/m3"}, {"measurement": "mass density", "setting": "[3]; 293.15 K, x2 = 0.2632", "result": "900.31 ± 0.31", "unit": "kg/m3"}, {"measurement": "mass density", "setting": "[3]; 293.15 K, x2 = 0.3036", "result": "904.17 ± 0.31", "unit": "kg/m3"}, {"measurement": "mass density", "setting": "[3]; 293.15 K, x2 = 0.4089", "result": "915.71 ± 0.3", "unit": "kg/m3"}, {"measurement": "mass density", "setting": "[3]; 293.15 K, x2 = 0.4323", "result": "918.49 ± 0.3", "unit": "kg/m3"}, {"measurement": "mass density", "setting": "[3]; 293.15 K, x2 = 0.479", "result": "924.47 ± 0.31", "unit": "kg/m3"}, {"measurement": "mass density", "setting": "[3]; 293.15 K, x2 = 0.5609", "result": "935.9 ± 0.32", "unit": "kg/m3"}, {"measurement": "mass density", "setting": "[3]; 293.15 K, x2 = 0.6332", "result": "947.71 ± 0.32", "unit": "kg/m3"}, {"measurement": "mass density", "setting": "[3]; 293.15 K, x2 = 0.7184", "result": "964.07 ± 0.33", "unit": "kg/m3"}, {"measurement": "mass density", "setting": "[3]; 293.15 K, x2 = 0.7912", "result": "980.62 ± 0.34", "unit": "kg/m3"}, {"measurement": "mass density", "setting": "[3]; 293.15 K, x2 = 0.8814", "result": "1005.53 ± 0.37", "unit": "kg/m3"}, {"measurement": "mass density", "setting": "[3]; 293.15 K, x2 = 0.9652", "result": "1034.87 ± 0.31", "unit": "kg/m3"}, {"measurement": "viscosity", "setting": "[3]; 298.15 K, x2 = 0.0852", "result": "0.7491 ± 0.0084", "unit": "mPa·s"}, {"measurement": "viscosity", "setting": "[3]; 298.15 K, x2 = 0.1881", "result": "0.7412 ± 0.0083", "unit": "mPa·s"}, {"measurement": "viscosity", "setting": "[3]; 298.15 K, x2 = 0.2447", "result": "0.7448 ± 0.0082", "unit": "mPa·s"}, {"measurement": "viscosity", "setting": "[3]; 298.15 K, x2 = 0.3206", "result": "0.7457 ± 0.0081", "unit": "mPa·s"}, {"measurement": "viscosity", "setting": "[3]; 298.15 K, x2 = 0.3894", "result": "0.7476 ± 0.0081", "unit": "mPa·s"}, {"measurement": "viscosity", "setting": "[3]; 298.15 K, x2 = 0.4729", "result": "0.7532 ± 0.008", "unit": "mPa·s"}, {"measurement": "viscosity", "setting": "[3]; 298.15 K, x2 = 0.5694", "result": "0.7667 ± 0.008", "unit": "mPa·s"}, {"measurement": "viscosity", "setting": "[3]; 298.15 K, x2 = 0.6388", "result": "0.7838 ± 0.008", "unit": "mPa·s"}, {"measurement": "viscosity", "setting": "[3]; 298.15 K, x2 = 0.7151", "result": "0.8113 ± 0.0081", "unit": "mPa·s"}, {"measurement": "viscosity", "setting": "[3]; 298.15 K, x2 = 0.8031", "result": "0.8592 ± 0.0083", "unit": "mPa·s"}, {"measurement": "viscosity", "setting": "[3]; 298.15 K, x2 = 0.8817", "result": "0.9274 ± 0.0085", "unit": "mPa·s"}, {"measurement": "viscosity", "setting": "[3]; 298.15 K, x2 = 0.9589", "result": "1.035 ± 0.009", "unit": "mPa·s"}, {"measurement": "mass density", "setting": "[3]; 298.15 K, x2 = 0.0479", "result": "878.72 ± 0.33", "unit": "kg/m3"}, {"measurement": "mass density", "setting": "[3]; 298.15 K, x2 = 0.1264", "result": "884.42 ± 0.32", "unit": "kg/m3"}, {"measurement": "mass density", "setting": "[3]; 298.15 K, x2 = 0.2399", "result": "893.74 ± 0.31", "unit": "kg/m3"}, {"measurement": "mass density", "setting": "[3]; 298.15 K, x2 = 0.2632", "result": "895.82 ± 0.31", "unit": "kg/m3"}, {"measurement": "mass density", "setting": "[3]; 298.15 K, x2 = 0.3036", "result": "899.62 ± 0.31", "unit": "kg/m3"}, {"measurement": "mass density", "setting": "[3]; 298.15 K, x2 = 0.4089", "result": "911.04 ± 0.3", "unit": "kg/m3"}, {"measurement": "mass density", "setting": "[3]; 298.15 K, x2 = 0.4323", "result": "913.77 ± 0.3", "unit": "kg/m3"}, {"measurement": "mass density", "setting": "[3]; 298.15 K, x2 = 0.479", "result": "919.7 ± 0.3", "unit": "kg/m3"}, {"measurement": "mass density", "setting": "[3]; 298.15 K, x2 = 0.5609", "result": "930.9 ± 0.3", "unit": "kg/m3"}, {"measurement": "mass density", "setting": "[3]; 298.15 K, x2 = 0.6332", "result": "942.68 ± 0.3", "unit": "kg/m3"}, {"measurement": "mass density", "setting": "[3]; 298.15 K, x2 = 0.7184", "result": "958.92 ± 0.3", "unit": "kg/m3"}, {"measurement": "mass density", "setting": "[3]; 298.15 K, x2 = 0.7912", "result": "975.33 ± 0.3", "unit": "kg/m3"}, {"measurement": "mass density", "setting": "[3]; 298.15 K, x2 = 0.8814", "result": "1000.08 ± 0.3", "unit": "kg/m3"}, {"measurement": "mass density", "setting": "[3]; 298.15 K, x2 = 0.9652", "result": "1029.28 ± 0.31", "unit": "kg/m3"}, {"measurement": "mass density", "setting": "[3]; 303.15 K, x2 = 0.0479", "result": "874.46 ± 0.33", "unit": "kg/m3"}, {"measurement": "mass density", "setting": "[3]; 303.15 K, x2 = 0.1264", "result": "880.07 ± 0.32", "unit": "kg/m3"}, {"measurement": "mass density", "setting": "[3]; 303.15 K, x2 = 0.2399", "result": "889.26 ± 0.31", "unit": "kg/m3"}, {"measurement": "mass density", "setting": "[3]; 303.15 K, x2 = 0.2632", "result": "891.31 ± 0.31", "unit": "kg/m3"}, {"measurement": "mass density", "setting": "[3]; 303.15 K, x2 = 0.3036", "result": "895.06 ± 0.3", "unit": "kg/m3"}, {"measurement": "mass density", "setting": "[3]; 303.15 K, x2 = 0.4089", "result": "906.34 ± 0.3", "unit": "kg/m3"}, {"measurement": "mass density", "setting": "[3]; 303.15 K, x2 = 0.4323", "result": "909.03 ± 0.3", "unit": "kg/m3"}, {"measurement": "mass density", "setting": "[3]; 303.15 K, x2 = 0.479", "result": "914.91 ± 0.3", "unit": "kg/m3"}, {"measurement": "mass density", "setting": "[3]; 303.15 K, x2 = 0.5609", "result": "926.08 ± 0.28", "unit": "kg/m3"}, {"measurement": "mass density", "setting": "[3]; 303.15 K, x2 = 0.6332", "result": "937.66 ± 0.28", "unit": "kg/m3"}, {"measurement": "mass density", "setting": "[3]; 303.15 K, x2 = 0.7184", "result": "953.75 ± 0.28", "unit": "kg/m3"}, {"measurement": "mass density", "setting": "[3]; 303.15 K, x2 = 0.7912", "result": "970.03 ± 0.27", "unit": "kg/m3"}, {"measurement": "mass density", "setting": "[3]; 303.15 K, x2 = 0.8814", "result": "994.74 ± 0.25", "unit": "kg/m3"}, {"measurement": "mass density", "setting": "[3]; 303.15 K, x2 = 0.9652", "result": "1023.69 ± 0.31", "unit": "kg/m3"}, {"measurement": "refractive index", "setting": "[4]; x2 = 0.0852", "result": "1.4965 ± 0.0007"}, {"measurement": "refractive index", "setting": "[4]; x2 = 0.1881", "result": "1.4875 ± 0.0007"}, {"measurement": "refractive index", "setting": "[4]; x2 = 0.2447", "result": "1.4816 ± 0.0007"}, {"measurement": "refractive index", "setting": "[4]; x2 = 0.3206", "result": "1.4747 ± 0.0007"}, {"measurement": "refractive index", "setting": "[4]; x2 = 0.3894", "result": "1.4672 ± 0.0007"}, {"measurement": "refractive index", "setting": "[4]; x2 = 0.4729", "result": "1.4579 ± 0.0007"}, {"measurement": "refractive index", "setting": "[4]; x2 = 0.5569", "result": "1.4472 ± 0.0007"}, {"measurement": "refractive index", "setting": "[4]; x2 = 0.636", "result": "1.4363 ± 0.0007"}, {"measurement": "refractive index", "setting": "[4]; x2 = 0.7151", "result": "1.424 ± 0.0007"}, {"measurement": "refractive index", "setting": "[4]; x2 = 0.8031", "result": "1.4099 ± 0.0007"}, {"measurement": "refractive index", "setting": "[4]; x2 = 0.8817", "result": "1.3951 ± 0.0007"}, {"measurement": "refractive index", "setting": "[4]; x2 = 0.9589", "result": "1.379 ± 0.0007"}]}
{"molecule": "Cc1cccc(C)c1", "note": "[1,3-dimethylbenzene]", "values": [{"measurement": "viscosity", "setting": "[1]", "result": "0.589 ± 0.008", "unit": "mPa·s"}, {"measurement": "mass density", "setting": "[1]", "result": "859.88 ± 0.24", "unit": "kg/m3"}, {"measurement": "refractive index", "setting": "[2]", "result": "1.4944 ± 0.0008"}]}
